Reference: US9862684B2, “Modulation of K2P channels” (The Regents of the University of California, priority 2013, dated 2018)
Positions count from the first letter of the chain named.

How the values were obtained:
K2P2.1 (TREK-1) G137I = target: T1, K2P2.1 (TREK-1) G137I (Mus musculus, UniProt P97438, G152I); assay: Two-electrode voltage clamp, Xenopus oocytes, C-type gate mutant G137I; assay type: cell-based, Murine
T1 construct: expressed in transfected cells; host or cells: Xenopus oocytes
T1 sequence (P97438 1-411 isoform P97438-2 G137I): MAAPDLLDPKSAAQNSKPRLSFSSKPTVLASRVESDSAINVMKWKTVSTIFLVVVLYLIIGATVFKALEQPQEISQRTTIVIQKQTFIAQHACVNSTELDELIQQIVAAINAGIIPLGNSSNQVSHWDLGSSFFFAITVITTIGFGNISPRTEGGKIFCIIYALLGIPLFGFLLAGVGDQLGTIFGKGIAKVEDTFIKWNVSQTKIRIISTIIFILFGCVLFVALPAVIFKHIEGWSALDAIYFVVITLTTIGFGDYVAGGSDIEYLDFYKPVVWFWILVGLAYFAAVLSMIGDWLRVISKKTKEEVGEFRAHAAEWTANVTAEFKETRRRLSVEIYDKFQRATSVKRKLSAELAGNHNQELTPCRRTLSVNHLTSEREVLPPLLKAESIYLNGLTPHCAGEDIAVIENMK
Protocol: (§1) I-V curves were measured by two-electrode voltage clamp of Xenopus oocytes in b, 90 mM [K^+]o. or c-e, 2 mM [K^+]o. […] Data (were measured at 20 mV (90 mM [K^+]o) or 0 mV (2 mM [K^+]o), normalized to basal channel activity, and fitted to the Hill equation. Error bars indicate s.e., n≧6, N≧2.
(§2) Murine K2P channels were cloned into pGEMHE/pMO {Bagriantsev, 2011}, IRES-GFP (Invitrogen), or pYES2-MET25 (high copy 2μ, URA3) {Minor, 1999} for expression in oocytes, HEK-293T cells, and yeast, respectively, using standard molecular biology procedures, and verified by DNA sequencing.
(§3) Two-electrode voltage clamp recordings were performed from defolliculated stage V-VI Xenopus oocytes 24-48 hours after injection with 0.015-6.0 ng cRNA, using microelectrodes (0.3-3.0 MΩ) filled with 3M KCl. Data was acquired using the GeneClamp 500B (MDS Analytical Technologies) amplifier controlled by the pClamp software (Molecular Devices), and digitized at 1 kHz using Digidata 1332A (MDS Analytical Technologies). Recording solutions (mM): 2K (96 NaCl, 2 KCl, 1.8 CaCl2, 2 MgCl2), 90K (90 KCl, 8 NaCl, 1.8 CaCl2, 2 MgCl2), were buffered 5 mM HEPES pH 7.4. For K2P recordings, currents we elicited by a 1 second long ramp from −150 to +50 mV from a holding potential of −80 mV (2K), or −100 to +50 mV from a holding potential of 0 mV (90K). […]

K2P2.1 (TREK-1) W275S = target: T2, K2P2.1 (TREK-1) W275S (Mus musculus, UniProt P97438, W290S); assay: Two-electrode voltage clamp, Xenopus oocytes, C-type gate mutant W275S; assay type: cell-based, Murine
T2 construct: expressed in transfected cells; host or cells: Xenopus oocytes
T2 sequence (P97438 1-411 isoform P97438-2 W275S): T1 sequence (P97438 1-411 isoform P97438-2 G137I) with I137G, W275S
Protocol: as §1, §2, §3

Kv7.2 (KCNQ2) = target: T3, Kv7.2 (KCNQ2) (Homo sapiens, UniProt O43526); assay: Two-electrode voltage clamp, Xenopus oocytes expressing Kv7.2 (KCNQ2); assay type: cell-based; details: ML67-33 at 100 μM; ML67 concentration not stated
T3 construct: expressed in transfected cells; host or cells: Xenopus oocytes
Protocol: FIG. 12 Exemplar I-V curves showing the effect of 100 μM ML67-33 Kv7.2 (KCNQ2) measured by two-electrode voltage clamp in Xenopus oocytes in 2 mM [K^+]o pH 7.4. Currents were elicited by a step protocol from −120 to 60 mV, in 20 mV increments, from a holding potential of −80 mV.
Two-electrode voltage clamp recordings were performed from defolliculated stage V-VI Xenopus oocytes 24-48 hours after injection with 0.015-6.0 ng cRNA, using microelectrodes (0.3-3.0 MΩ) filled with 3M KCl. Data was acquired using the GeneClamp 500B (MDS Analytical Technologies) amplifier controlled by the pClamp software (Molecular Devices), and digitized at 1 kHz using Digidata 1332A (MDS Analytical Technologies). Recording solutions (mM): 2K (96 NaCl, 2 KCl, 1.8 CaCl2, 2 MgCl2), 90K (90 KCl, 8 NaCl, 1.8 CaCl2, 2 MgCl2), were buffered 5 mM HEPES pH 7.4. For K2P recordings, currents we elicited by a 1 second long ramp from −150 to +50 mV from a holding potential of −80 mV (2K), or −100 to +50 mV from a holding potential of 0 mV (90K). For KCNQ2 recordings, currents were elicited by a step protocol from −120 to 60 mV, in 20 mV increments, from a holding potential of −80 mV. Patch-clamp recordings from HEK-293T cells were performed using microelectrodes (2-3 MΩ) filled with 1M KCl. Data was acquired using the Axopatch 200B amplifier controlled by pClamp software, and digitized at 1 kHz using Digidata 1332A. Recording solutions (mM): intracellular (145 KCl, 5 EGTA, 3 MgCl2,) extracellular (150 NaCl, 5 KCl, 3 MgCl2, 1 CaCl2) were buffered with 5 mM HEPES pH 7.2 and 7.4, respectively. Currents were elicited by a 1 second long ramp from −150 to +50 mV from a holding potential of −80 mV. Data were fitted with a modified Hill's equation: I=Imin+(Imax−Imin)/(1+10^((Log EC50−Log [C])*H)), where Imax and Imin are maximal and minimal current values, respectively, EC50 is a half-maximal effective concentration of the compound, and H is the Hill coefficient.

Structure (SMILES): CC1(C)c2cc(Cl)ccc2N(CCc2nnn[nH]2)c2ccc(Cl)cc21 [ML67-33, 2,7-dichloro-9,9-dimethyl-10-[2-(1H-tetrazol-5-yl)ethyl]acridine]
- response to ML67-33 activation (in words) (K2P2.1 (TREK-1) G137I): completely resistant
- Emax (fold) at 150 μM (K2P2.1 (TREK-1) G137I; at 150 μM): 0.9 ± 0.1 at 150 μM fold
- EC50 (K2P2.1 (TREK-1) W275S): 21.8 ± 1.3 µM
- Emax (fold) (K2P2.1 (TREK-1) W275S): 5.1 ± 0.6 fold
- effect on Kv7.2 (KCNQ2) (in words) (Kv7.2 (KCNQ2)): no effect
